Results as given in ChEMBL document CHEMBL5214889, “Therapeutic progression of quinazolines as targeted chemotherapeutic agents” (Eur J Med Chem, 2021).

Key:
[1] = molecular target: Phosphatidylinositol 4,5-bisphosphate 3-kinase catalytic subunit gamma isoform (Homo sapiens, UniProt P48736); test: Inhibition of PI3Kgamma (unknown origin)
[2] = Inhibition of PDE2 (unknown origin); set-up: species or system Homo sapiens
HepG2 [3] = test: Cytotoxicity against human HepG2 cells assessed as growth inhibition by MTT assay; format: functional, cell-based
[4] = Inhibition of PI3K (unknown origin) by ADP-Glo assay; set-up: species or system Homo sapiens
Homo sapiens = organism: Homo sapiens; test: Activation of GABA receptor (unknown origin); details: filed as activator
KB = test: Cytotoxicity against human KB cells assessed as cell growth inhibition incubated for 72 hrs by MTT assay; format: functional, cell-based
MDA-MB-231 = test: Cytotoxicity against human MDA-MB-231 cells assessed as cell growth inhibition incubated for 72 hrs by MTT assay; format: functional, cell-based; details: MDA-MB-231, 72 h
HCT-8 = test: Cytotoxicity against human HCT-8 cells assessed as cell growth inhibition incubated for 72 hrs by MTT assay; format: functional, cell-based; details: HCT-8, 72 h
K562 [5] = test: Cytotoxicity against human K562 cells assessed as cell growth inhibition incubated for 72 hrs by MTT assay; format: functional, cell-based; details: K562, 72 h
HepG2 [6] = test: Cytotoxicity against human HepG2 cells assessed as cell growth inhibition incubated for 72 hrs by MTT assay; format: functional, cell-based; details: HepG2, 72 h
Tubulin = test: Inhibition of tubulin polymerization (unknown origin) incubated for 30 mins in presence of GTP by spectrophotometric analysis; format: protein-complex assay, Homo sapiens
[7] = molecular target: Sterol 14-alpha demethylase (Trypanosoma cruzi (strain CL Brener), UniProt Q7Z1V1); test: Inhibition of Trypanosoma cruzi Sterol 14-alpha demethylase
HCT-116 = test: Cytotoxicity against human HCT-116 cells; format: functional, cell-based
Histone deacetylase = test: Inhibition of HDAC (unknown origin); format: protein assay, Homo sapiens
[8] = molecular target: Phosphatidylinositol 4,5-bisphosphate 3-kinase catalytic subunit alpha isoform (Homo sapiens, UniProt P42336); test: Inhibition of PI3Kalpha (unknown origin)
HuT78 = test: Cytotoxicity against human HuT78 cells; format: functional, cell-based
K562 [9] = test: Cytotoxicity against human K562 cells; format: functional, cell-based
Proline--tRNA ligase = molecular target: T1, Proline--tRNA ligase (Plasmodium falciparum (isolate 3D7), UniProt Q8I5R7); test: Inhibition of Plasmodium falciparum 3D7 Prolyl-tRNA synthetase
T1 sequence (Q8I5R7 whole entry): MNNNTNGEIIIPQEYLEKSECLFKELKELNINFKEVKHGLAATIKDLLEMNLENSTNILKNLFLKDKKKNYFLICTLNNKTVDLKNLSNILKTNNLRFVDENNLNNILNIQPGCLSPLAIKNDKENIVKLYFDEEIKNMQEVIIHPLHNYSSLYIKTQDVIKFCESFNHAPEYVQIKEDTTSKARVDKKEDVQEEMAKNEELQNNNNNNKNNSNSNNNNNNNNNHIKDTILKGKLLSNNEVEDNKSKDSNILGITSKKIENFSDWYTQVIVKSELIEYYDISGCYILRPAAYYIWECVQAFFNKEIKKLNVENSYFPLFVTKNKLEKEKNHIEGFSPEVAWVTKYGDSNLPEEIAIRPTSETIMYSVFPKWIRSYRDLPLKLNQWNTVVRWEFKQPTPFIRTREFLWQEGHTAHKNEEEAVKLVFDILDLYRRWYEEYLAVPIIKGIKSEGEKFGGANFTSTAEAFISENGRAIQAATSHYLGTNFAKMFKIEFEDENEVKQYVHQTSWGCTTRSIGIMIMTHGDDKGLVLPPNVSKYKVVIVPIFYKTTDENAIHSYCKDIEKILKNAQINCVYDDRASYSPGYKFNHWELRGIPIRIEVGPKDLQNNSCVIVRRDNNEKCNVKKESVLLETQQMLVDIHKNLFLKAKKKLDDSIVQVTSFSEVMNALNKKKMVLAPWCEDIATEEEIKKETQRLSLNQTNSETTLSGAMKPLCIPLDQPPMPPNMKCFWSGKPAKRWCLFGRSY

[10] = Cytotoxicity against rat C6 cells assessed as reduction in cell viability incubated for 48 hrs by MTT assay; format: toxicity, cell-based
[11] = molecular target: T2, Adrenergic receptor alpha-1 (Homo sapiens, UniProt P35348+P25100+P35368); test: Antagonist activity at Adrenergic alpha-1 receptor (unknown origin); format: functional
T2 sequence (P35348 whole entry): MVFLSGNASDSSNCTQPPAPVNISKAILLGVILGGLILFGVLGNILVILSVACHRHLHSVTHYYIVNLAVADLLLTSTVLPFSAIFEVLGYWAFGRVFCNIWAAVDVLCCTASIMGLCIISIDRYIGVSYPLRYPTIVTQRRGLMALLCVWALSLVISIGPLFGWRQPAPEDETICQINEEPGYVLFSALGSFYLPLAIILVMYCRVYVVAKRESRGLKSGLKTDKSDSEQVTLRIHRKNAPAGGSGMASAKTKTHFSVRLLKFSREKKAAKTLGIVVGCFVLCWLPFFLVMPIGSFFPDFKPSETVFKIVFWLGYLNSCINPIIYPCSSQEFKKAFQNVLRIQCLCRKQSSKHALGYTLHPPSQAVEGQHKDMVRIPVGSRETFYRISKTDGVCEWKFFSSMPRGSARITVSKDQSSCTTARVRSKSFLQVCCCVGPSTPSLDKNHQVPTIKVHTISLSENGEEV
T2 sequence (P25100 whole entry): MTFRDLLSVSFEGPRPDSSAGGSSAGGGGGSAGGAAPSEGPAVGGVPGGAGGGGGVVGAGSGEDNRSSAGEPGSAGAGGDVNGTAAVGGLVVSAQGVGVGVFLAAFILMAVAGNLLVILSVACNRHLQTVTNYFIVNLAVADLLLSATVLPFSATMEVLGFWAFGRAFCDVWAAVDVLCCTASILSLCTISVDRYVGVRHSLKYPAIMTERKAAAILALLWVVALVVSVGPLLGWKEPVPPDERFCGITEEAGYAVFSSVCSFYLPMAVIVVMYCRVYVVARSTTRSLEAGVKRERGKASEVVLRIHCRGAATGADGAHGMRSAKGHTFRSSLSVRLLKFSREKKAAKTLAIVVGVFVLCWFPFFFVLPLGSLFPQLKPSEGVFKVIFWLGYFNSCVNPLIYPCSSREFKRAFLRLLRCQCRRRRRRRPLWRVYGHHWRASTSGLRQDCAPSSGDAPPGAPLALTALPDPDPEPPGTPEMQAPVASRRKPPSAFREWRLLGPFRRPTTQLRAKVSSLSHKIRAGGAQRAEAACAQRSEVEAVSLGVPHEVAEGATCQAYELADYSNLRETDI
T2 sequence (P35368 whole entry): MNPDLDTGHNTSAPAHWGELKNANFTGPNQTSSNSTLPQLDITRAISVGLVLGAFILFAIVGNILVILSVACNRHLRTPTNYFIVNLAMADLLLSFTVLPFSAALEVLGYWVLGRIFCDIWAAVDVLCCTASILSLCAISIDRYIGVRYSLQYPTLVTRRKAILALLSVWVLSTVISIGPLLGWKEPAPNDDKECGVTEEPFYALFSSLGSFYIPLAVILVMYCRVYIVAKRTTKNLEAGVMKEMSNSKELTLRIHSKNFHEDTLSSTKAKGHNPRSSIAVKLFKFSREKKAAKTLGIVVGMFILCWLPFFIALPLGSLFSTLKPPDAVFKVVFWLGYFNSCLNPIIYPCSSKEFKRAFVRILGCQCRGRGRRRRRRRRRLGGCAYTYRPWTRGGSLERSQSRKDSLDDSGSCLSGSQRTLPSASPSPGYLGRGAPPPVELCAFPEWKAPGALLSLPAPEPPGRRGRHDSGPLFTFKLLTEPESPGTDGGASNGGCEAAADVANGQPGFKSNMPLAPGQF

MOLM-13 = test: Cytotoxicity against human MOLM-13 cells assessed as cell growth inhibition incubated for 72 hrs by MTS assay; format: functional, cell-based; details: MOLM-13, 72 h
MV4-11 = test: Cytotoxicity against human MV4-11 cells assessed as cell growth inhibition incubated for 72 hrs by MTS assay; format: functional, cell-based; details: MV4-11, 72 h
[12] = molecular target: Epidermal growth factor receptor (Homo sapiens, UniProt P00533); test: Inhibition of EGFR (unknown origin)
[13] = molecular target: Vascular endothelial growth factor receptor 2 (Homo sapiens, UniProt P35968); test: Inhibition of VEGFR-2 (unknown origin) using poly(Glu:Tyr)(4:1) and ATP as substrate by incubated for 1 hr by spectrophotometric based ELISA
[14] = Cytotoxicity against human HUVEC cells assessed as cell growth inhibition incubated for 72 hrs by SRB assay; format: toxicity, cell-based
[15] = Inhibition of COX (unknown origin); set-up: species or system Homo sapiens

Sequence of Sterol 14-alpha demethylase (Q7Z1V1 whole entry): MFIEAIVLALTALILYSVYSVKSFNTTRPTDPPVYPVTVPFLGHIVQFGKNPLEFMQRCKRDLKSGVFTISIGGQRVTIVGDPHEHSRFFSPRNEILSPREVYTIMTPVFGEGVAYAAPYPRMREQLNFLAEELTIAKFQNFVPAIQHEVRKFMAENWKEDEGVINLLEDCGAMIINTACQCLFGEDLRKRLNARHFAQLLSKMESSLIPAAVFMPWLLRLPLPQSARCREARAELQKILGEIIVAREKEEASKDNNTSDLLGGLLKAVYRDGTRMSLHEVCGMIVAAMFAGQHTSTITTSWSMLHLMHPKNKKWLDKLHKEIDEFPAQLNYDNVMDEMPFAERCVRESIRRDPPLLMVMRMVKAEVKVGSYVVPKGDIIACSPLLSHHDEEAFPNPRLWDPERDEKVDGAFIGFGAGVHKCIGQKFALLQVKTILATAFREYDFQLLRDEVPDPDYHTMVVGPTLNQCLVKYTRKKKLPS
Sequence of Phosphatidylinositol 4,5-bisphosphate 3-kinase catalytic subunit gamma isoform (P48736 whole entry, canonical isoform): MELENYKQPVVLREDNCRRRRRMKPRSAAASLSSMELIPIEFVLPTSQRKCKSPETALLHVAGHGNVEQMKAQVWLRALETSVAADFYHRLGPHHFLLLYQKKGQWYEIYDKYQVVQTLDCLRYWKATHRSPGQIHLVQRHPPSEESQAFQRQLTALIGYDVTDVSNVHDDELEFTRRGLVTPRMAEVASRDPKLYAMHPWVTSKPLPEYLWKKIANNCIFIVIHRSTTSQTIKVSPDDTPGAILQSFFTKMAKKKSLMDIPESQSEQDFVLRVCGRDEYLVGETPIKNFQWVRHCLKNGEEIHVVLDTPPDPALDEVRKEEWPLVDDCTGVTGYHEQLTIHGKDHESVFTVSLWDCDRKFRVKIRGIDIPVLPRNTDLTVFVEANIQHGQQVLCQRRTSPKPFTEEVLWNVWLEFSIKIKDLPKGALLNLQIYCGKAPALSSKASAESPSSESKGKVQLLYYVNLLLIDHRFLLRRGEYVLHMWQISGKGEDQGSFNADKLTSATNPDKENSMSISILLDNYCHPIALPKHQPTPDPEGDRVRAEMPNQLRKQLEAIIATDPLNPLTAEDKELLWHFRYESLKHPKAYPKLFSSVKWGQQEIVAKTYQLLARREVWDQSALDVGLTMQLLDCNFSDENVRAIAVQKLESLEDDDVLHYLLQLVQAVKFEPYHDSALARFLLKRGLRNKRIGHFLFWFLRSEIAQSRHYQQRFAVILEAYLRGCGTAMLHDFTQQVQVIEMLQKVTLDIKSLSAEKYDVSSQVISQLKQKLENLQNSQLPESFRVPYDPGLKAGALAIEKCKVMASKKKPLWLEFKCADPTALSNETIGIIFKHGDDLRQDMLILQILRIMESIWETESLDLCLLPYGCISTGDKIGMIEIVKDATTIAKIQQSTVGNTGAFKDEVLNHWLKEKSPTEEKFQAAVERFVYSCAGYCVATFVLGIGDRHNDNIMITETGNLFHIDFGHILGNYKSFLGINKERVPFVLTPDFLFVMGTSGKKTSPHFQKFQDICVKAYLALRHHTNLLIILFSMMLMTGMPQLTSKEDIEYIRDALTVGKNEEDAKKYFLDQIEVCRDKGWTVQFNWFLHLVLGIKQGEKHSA
Sequence of Phosphatidylinositol 4,5-bisphosphate 3-kinase catalytic subunit alpha isoform (P42336 whole entry, canonical isoform): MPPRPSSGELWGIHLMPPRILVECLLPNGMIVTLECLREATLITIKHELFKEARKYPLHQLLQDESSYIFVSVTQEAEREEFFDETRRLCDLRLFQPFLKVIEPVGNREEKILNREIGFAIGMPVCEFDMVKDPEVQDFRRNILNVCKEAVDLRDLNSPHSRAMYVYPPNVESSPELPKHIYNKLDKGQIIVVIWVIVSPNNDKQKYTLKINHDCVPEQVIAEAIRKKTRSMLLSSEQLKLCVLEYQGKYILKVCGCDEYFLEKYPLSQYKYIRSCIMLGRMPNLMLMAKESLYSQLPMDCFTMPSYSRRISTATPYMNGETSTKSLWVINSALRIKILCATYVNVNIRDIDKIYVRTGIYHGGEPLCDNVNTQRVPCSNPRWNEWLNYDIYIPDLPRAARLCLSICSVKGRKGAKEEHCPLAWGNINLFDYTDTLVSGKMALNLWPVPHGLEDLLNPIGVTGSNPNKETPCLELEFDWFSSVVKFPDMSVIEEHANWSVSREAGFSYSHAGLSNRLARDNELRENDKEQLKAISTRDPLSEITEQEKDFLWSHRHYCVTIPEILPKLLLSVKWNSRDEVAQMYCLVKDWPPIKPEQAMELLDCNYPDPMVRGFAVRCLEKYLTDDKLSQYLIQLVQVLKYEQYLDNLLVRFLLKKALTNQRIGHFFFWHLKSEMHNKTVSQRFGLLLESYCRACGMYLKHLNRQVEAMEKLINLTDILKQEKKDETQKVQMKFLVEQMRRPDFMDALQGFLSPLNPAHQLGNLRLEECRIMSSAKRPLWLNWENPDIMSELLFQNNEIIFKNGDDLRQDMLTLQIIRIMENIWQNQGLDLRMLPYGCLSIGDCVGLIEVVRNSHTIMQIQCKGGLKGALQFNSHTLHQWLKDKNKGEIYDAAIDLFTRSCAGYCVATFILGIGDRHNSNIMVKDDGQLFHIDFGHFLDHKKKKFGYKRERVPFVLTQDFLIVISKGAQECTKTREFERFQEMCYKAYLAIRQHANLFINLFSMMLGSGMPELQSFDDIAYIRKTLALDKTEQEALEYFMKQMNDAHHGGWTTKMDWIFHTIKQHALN
Sequence of Vascular endothelial growth factor receptor 2 (P35968 whole entry): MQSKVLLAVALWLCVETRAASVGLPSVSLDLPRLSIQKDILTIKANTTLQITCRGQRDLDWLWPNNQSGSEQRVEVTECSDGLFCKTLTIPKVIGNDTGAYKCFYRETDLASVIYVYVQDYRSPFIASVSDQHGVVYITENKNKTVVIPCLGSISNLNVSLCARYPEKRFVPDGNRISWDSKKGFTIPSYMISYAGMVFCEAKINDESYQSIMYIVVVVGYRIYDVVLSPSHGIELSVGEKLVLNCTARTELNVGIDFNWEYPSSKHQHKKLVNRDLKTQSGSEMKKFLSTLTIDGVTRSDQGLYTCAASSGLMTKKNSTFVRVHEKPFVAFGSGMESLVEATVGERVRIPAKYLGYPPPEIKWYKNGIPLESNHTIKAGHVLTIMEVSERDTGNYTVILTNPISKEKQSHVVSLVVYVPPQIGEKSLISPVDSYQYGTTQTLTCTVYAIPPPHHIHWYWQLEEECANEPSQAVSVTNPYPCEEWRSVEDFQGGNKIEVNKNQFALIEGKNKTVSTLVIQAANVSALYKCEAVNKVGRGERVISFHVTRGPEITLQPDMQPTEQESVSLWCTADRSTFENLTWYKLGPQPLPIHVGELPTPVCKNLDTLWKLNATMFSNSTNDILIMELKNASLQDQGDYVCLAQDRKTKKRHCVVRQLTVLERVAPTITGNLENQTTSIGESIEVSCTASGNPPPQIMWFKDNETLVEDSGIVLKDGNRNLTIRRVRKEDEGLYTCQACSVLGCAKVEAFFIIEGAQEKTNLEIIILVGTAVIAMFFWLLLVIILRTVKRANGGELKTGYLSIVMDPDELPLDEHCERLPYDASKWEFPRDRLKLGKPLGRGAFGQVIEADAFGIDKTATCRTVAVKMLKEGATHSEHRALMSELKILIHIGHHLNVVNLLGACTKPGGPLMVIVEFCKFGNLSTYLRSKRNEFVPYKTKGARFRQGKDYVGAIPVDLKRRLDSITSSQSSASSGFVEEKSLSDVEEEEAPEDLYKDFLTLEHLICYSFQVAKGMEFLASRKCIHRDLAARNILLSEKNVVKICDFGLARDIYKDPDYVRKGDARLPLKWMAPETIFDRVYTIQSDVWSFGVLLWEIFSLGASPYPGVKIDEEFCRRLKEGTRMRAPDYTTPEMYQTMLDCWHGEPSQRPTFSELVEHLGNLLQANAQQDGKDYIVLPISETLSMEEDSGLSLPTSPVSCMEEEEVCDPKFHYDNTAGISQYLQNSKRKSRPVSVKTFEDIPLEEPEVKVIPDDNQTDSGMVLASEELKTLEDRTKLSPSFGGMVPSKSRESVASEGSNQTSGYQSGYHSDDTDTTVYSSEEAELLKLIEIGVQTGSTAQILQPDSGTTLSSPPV

Compound: NC(=O)c1cc(-c2ccc3ncnc(-c4cccc(C(=O)NCCN5CCOCC5)c4)c3c2)ccc1Cl
- IC50 [1]: 17 nM

Compound: O=C1CN2Cc3c(ccc(Cl)c3Cl)N=C2N1 [ANAGRELIDE]
- IC50 [2]: 26 nM

Compound: COc1cc(C2Sc3ccccc3C(=O)N2NC(=O)c2ccc(-n3c(-c4ccncc4)nc4ccccc4c3=O)cc2)ccc1O (centres undefined)
- IC50 (HepG2 [3]): 60300 nM
- IC50 [4]: 31900 nM

Compound: Cc1ccccc1-n1c(C)nc2ccccc2c1=O
- ED50 (Homo sapiens): 400 µmol/kg

Compound: COc1ccc(N(C)c2nc(NCc3cccnc3)nc3ccccc23)cc1
- IC50 (KB): 110 nM
- IC50 (MDA-MB-231): 110 nM
- IC50 (HCT-8): 110 nM
- IC50 (K562 [5]): 110 nM
- IC50 (HepG2 [6]): 110 nM
- IC50 (Tubulin): 2450 nM

Compound: C[C@@H](n1cnc2cc(Cl)ccc2c1=O)[C@](O)(Cn1cncn1)c1ccc(F)cc1F [ALBACONAZOLE]
- IC50 [7]: 1 nM

Compound: O=C(CCCCCOc1ccc2c(c1)N=C(NC(=O)c1ccccc1)N1CCN=C21)NO
- IC50 (HCT-116): 330 nM
- IC50 (Histone deacetylase): 50 nM
- IC50 [8]: 2.98 nM
- IC50 (HuT78): 62 nM
- IC50 (K562 [9]): 95 nM

Compound: O=C(C[C@H]1NCCC[C@@H]1O)Cn1cnc2ccccc2c1=O
- EC50 (Proline--tRNA ligase): 4 nM

Compound: O=c1cc(N2CCOCC2)oc2c(-c3ccccc3)cccc12 [LY-294002]
- IC50 [4]: 57300 nM

Compound: COc1cc([C@@H]2c3cc4c(cc3[C@@H](O[C@@H]3O[C@@H]5CO[C@@H](C)O[C@H]5[C@H](O)[C@H]3O)[C@H]3COC(=O)[C@H]23)OCO4)cc(OC)c1O [ETOPOSIDE]
- IC50 at 48 h [10]: 4320 nM

Compound: CCCC(=O)N1CCCN(c2nc(N)c3cc(OC)c(OC)cc3n2)CC1 [BUNAZOSIN]
- IC50 [11]: 1.22 nM

Compound: OC1Nc2ccccc2-c2cc(-c3ccc(Cl)cc3)nn21 (centres undefined)
- IC50 at 48 h [10]: 3860 nM

Compound: CN(C)CCCOc1ccc2c(NCCc3cnc(NC(=O)Nc4cccc(Cl)c4)s3)ncnc2c1
- EC50 (MOLM-13): 5 nM
- EC50 (MV4-11): 5 nM

Compound: Cc1ccc2c(-c3ccccc3)nc(=O)n(C(C)C)c2c1 [PROQUAZONE]
- IC50 [12]: 2 nM

Compound: COc1cc2ncnc(-n3ncc4cc(NC(=O)Nc5ccc(C)c(Cl)c5)ccc43)c2cc1OC
- IC50 [13]: 12 nM
- IC50 at 72 h [14]: 1800 nM

Compound: COc1cc2nc(N3CCN(C(=O)c4ccco4)CC3)nc(N)c2cc1OC [PRAZOSIN]
- IC50 [15]: 1900 nM

Compound: COc1cccc2c1C(=O)c1c(O)c3c(c(O)c1C2=O)C[C@@](O)(C(=O)CO)C[C@@H]3O[C@H]1C[C@H](N)[C@H](O)[C@H](C)O1 [DOXORUBICIN]
- IC50 (HepG2 [3]): 60300 nM
